Holding throughout (format): cell-based, rat
Assay [1] deals with fibrin-induced microglia activation. Briefly: Image-based assay of fibrin-induced microglia activation (HTS and dose response). To be noted: for inhibition at 10 µM: read-out: Fibrin % inhibition; for fib_HS: Hill slope of fibrin dose response.
In assay [2] the test system is LPS-induced microglia activation. Briefly: Image-based assay of LPS-induced microglia activation (HTS and dose response).
Assay [3] has as its system fibrin- and LPS-induced microglia activation. Briefly: cells. The conditions noted are these: for Activity: Table 7, fib = fibrin, LPS, tox = toxicity.
Where [4] appears, read: classification by fibrin and LPS inhibition in HTS.
Setting [5] is: Rattus norvegicus, Microglia, read-out: LPS % inhibition.
Setting [6] is: Rattus norvegicus, Microglia, primary microglia HTS, 10 μM, fibrin-stimulated, cell size >800 μm^2 as marker of activation.
Setting [7] is: Rattus norvegicus, Microglia, primary microglia HTS, 10 μM, LPS-stimulated, cell size >800 μm^2 as marker of activation; read-out: LPS % inhibition.
The mark [8] stands for this setting: HTS of 1907 compounds, quadrant by fibrin and LPS inhibition.
[9] abbreviates: quadrant by fibrin and LPS inhibition, HTS at 10 μM.
The mark [10] stands for this setting: Hill slope of LPS dose response; Table 7.
[11] abbreviates: Rattus norvegicus, Microglia, Table 7, read-out: fib_IC50.
Setting [12] is: Rattus norvegicus, Microglia, Table 7; read-out: LPS_IC50.

Structures can show the parent of a compound that is named as a salt. Where two headings read alike, the source gives them in different places.

By inhibition is commonly meant the relative decrease from the control value, in per cent.

On to `CN1CCc2cccc3c2[C@H]1Cc1ccc(O)c(O)c1-3.Cl` [R(−)-Apomorphine hydrochloride, reference compound], for which, in assay [1], the Fibrin % inhibition came to 63%. Also, the IC50 in assay [1] (Table 1, dose response 0.001-20 μM, triplicates, primary rat microglia, 48 h, read-out: Fibrin IC50) was over 20 µM; in assay [1] (read-out: Fibrin IC50) it was over 20 µM; in assay [1] (read-out: Fibrin IC50 (uM) (Suppl. Table 7)), over 20 µM; in assay [2] (Table 1; dose response 0.001-20 μM, triplicates, primary rat microglia, 48 h; read-out: LPS IC50), 14 µM; in assay [2] (read-out: LPS IC50), 14 µM; in assay [2] (read-out: LPS IC50 (uM) (Suppl. Table 7)) it was 14 µM. For the same compound, in assay [2], the LPS % inhibition was determined as 18%. Besides, the “Cherry-picked Hit (Suppl. Table 7)” value in assay [3] was “HIT (key: HIT: Hits were defined as molecules that exhibited greater than 50% inhibition of either fibrin or LPS activation)”. Moreover, the Hit result in assay [3] is “HIT (key: HIT: Hits were defined as molecules that exhibited greater than 50% inhibition of either fibrin or LPS activation)”. For the same compound, the “Quadrant (FIG. 5b)” value is “Q3” in assay [3] and “Q3” in assay [3] (Table 1, screen at 10 μM).

On to `CNC(C)C(O)c1ccccc1` (stereo not shown) [Racephedrine Hydrochloride], for which the inhibition at 10 µM is -26% in assay [1] (Rattus norvegicus, Microglia, primary microglia HTS, fibrin stimulation, cell size >800 μm2 as marker of activation) and 17% in assay [2] (Rattus norvegicus, Microglia, 48 h; read-out: LPS % inhibition). Further, in assay [3] (setting [4]), the “Quadrant (FIG. 5b)” value is “Q4”.

As to `Cc1cc2nc3c(=O)[nH]c(=O)nc-3n(C[C@H](O)[C@H](O)[C@H](O)COP(=O)([O-])O)c2cc1C.[Na+]` [Riboflavin 5-phosphate Sodium], the Fibrin % inhibition in assay [1] (primary microglia HTS, fibrin stimulation, cell size >800 μm2 as marker of activation) came to 11%. Also, in assay [2], the LPS % inhibition amounted to 24%. Besides, the “Quadrant (FIG. 5b)” value in assay [3] (setting [4]) is listed as “Q4”.

With `Nc1nc2ccc(OC(F)(F)F)cc2s1` [Riluzole], the inhibition at 10 µM in assay [1] (Rattus norvegicus, Microglia) was found to be 0%; in assay [2] (Rattus norvegicus, Microglia, 48 h, read-out: LPS % inhibition) it was 7%. The “Quadrant (FIG. 5b)” value in assay [3] was “Q4”.

`CN1[C@@H]2C[C@@H](OC(=O)[C@H](CO)c3ccccc3)C[C@H]1[C@@H]1O[C@@H]12` [Scopolamine Hydrobromide]: in assay [1], the Fibrin % inhibition is recorded as 5%. The LPS % inhibition in assay [2] stood at 3%. The “Quadrant (FIG. 5b)” value in assay [3] is listed as “Q4”.

Take `CN1[C@@H]2C[C@@H](OC(=O)[C@H](CO)c3ccccc3)C[C@H]1[C@@H]1O[C@@H]12` [Scopolamine]: in assay [1], the Fibrin % inhibition was −26%. Moreover, in assay [2], the LPS % inhibition is −6%. Besides, the “Quadrant (FIG. 5b)” value in assay [3] was “Q4”.

Turning to `CN(N=O)C(=O)N[C@@H](C=O)[C@@H](O)[C@H](O)[C@H](O)CO` [Streptozocin], the inhibition at 10 µM in assay [1] (Rattus norvegicus, Microglia) was -30%; in assay [2] (setting [5]), 19%. Further, the “Quadrant (FIG. 5b)” value in assay [3] is on record as “Q4”.

For `Cc1cc(NS(=O)(=O)c2ccc(N)cc2)no1` [Sulfamethoxazole], the inhibition at 10 µM in assay [1] (Rattus norvegicus, Microglia) was -17%; in assay [2] (setting [5]), 17%. Further, the “Quadrant (FIG. 5b)” value in assay [3] was “Q4”.

Turning to `Nc1ccc(S(N)(=O)=O)cc1` [Sulfanilamide], the inhibition at 10 µM in assay [1] (Rattus norvegicus, Microglia) was -14%; in assay [2] (setting [5]) it was 11%. Moreover, the “Quadrant (FIG. 5b)” value in assay [3] is “Q4”.

As to `CC/C(=C(\c1ccccc1)c1ccc(OCCN(C)C)cc1)c1ccccc1` [Tamoxifen], the inhibition at 10 µM in assay [1] (Rattus norvegicus, Microglia) came to 14%; in assay [2] (setting [5]) it was 5%. In addition, the “Quadrant (FIG. 5b)” value in assay [3] is listed as “Q4”.

With `CC(C)(C)c1ccc(C(O)CCCN2CCC(C(O)(c3ccccc3)c3ccccc3)CC2)cc1` (stereo not shown) [Terfenadine], the inhibition at 10 µM is 19% in assay [1] (Rattus norvegicus, Microglia) and 7% in assay [2] (setting [5]). For the same compound, the “Quadrant (FIG. 5b)” value in assay [3] is given as “Q4”.

Turning to `CCC(=O)O[C@H]1CC[C@H]2[C@@H]3CCC4=CC(=O)CC[C@]4(C)[C@H]3CC[C@]12C` [Testosterone Propionate], the inhibition at 10 µM in assay [1] (setting [6]) was determined as 21%; in assay [2] (setting [7]), 8%. In addition, the “Quadrant (FIG. 5b)” value in assay [3] (setting [8]) was “Q4”.

Regarding `C[C@]12CC[C@H]3[C@@H](CCC4=CC(=O)CC[C@@]43C)[C@@H]1CC[C@@H]2O` [Testosterone], the inhibition at 10 µM is -1% in assay [1] (Rattus norvegicus, Microglia) and 5% in assay [2] (setting [5]). Also, the “Quadrant (FIG. 5b)” value in assay [3] was “Q4”.

`Nc1nc2nc[nH]c2c(=S)[nH]1` [Tioguanine]: the inhibition at 10 µM in assay [1] (Rattus norvegicus, Microglia) worked out at 12%; in assay [2] (setting [5]), 18%. Also, the “Quadrant (FIG. 5b)” value in assay [3] is on record as “Q4”.

With `CCC1=C[C@@H]2CN(C1)Cc1c([nH]c3ccccc13)[C@@](C(=O)OC)(c1cc3c(cc1OC)N(C)[C@H]1[C@@](O)(C(=O)OC)[C@H](OC(C)=O)[C@]4(CC)C=CCN5CC[C@]31[C@@H]54)C2` [Vinorelbine], the inhibition at 10 µM in assay [1] (setting [6]) is -12%; in assay [1] (Rattus norvegicus, Microglia, primary microglia HTS, fibrin stimulation, compounds at 10 μM), 108%; in assay [2] (setting [7]), -11%; in assay [2] (Rattus norvegicus, Microglia, primary microglia HTS, LPS stimulation, compounds at 10 μM; read-out: LPS % inhibition), 106%. In addition, the “Quadrant (FIG. 5b)” value in assay [3] (setting [8]) is recorded as “Q4”; in assay [3] (setting [9]), “Q2”.

Take `O=C1O[C@H]([C@@H](O)CO)C(O)=C1O` [Vitamin C]: the Fibrin % inhibition in assay [1] (primary microglia HTS, 10 μM, fibrin-stimulated, cell size >800 μm^2 as marker of activation) was −28%. In addition, in assay [2] (primary microglia HTS, 10 μM, LPS-stimulated, cell size >800 μm^2 as marker of activation), the LPS % inhibition came to 18%. Further, the “Quadrant (FIG. 5b)” value in assay [3] (setting [8]) is given as “Q4”.

With `COc1cc([C@@H]2c3cc4c(c(O)c3C[C@H]3COC(=O)[C@@H]32)OCO4)cc(OC)c1OC` [beta-peltatin], in assay [1] (Table 7), the fib_HS is listed as −2.10 and the fib specificity was found to be 0.5. In assay [1] (Table 7, read-out: fib_IC50), the IC50 amounted to 0.505 µM. Besides, the LPS_HS in assay [2] (setting [10]) is reported as −1.50. For the same compound, in assay [2] (Table 7), the LPS specificity is listed as 2.0. Moreover, in assay [2] (Table 7; read-out: LPS_IC50), the IC50 was 0.252 µM. Besides, in assay [3], the Activity result is “fib/LPS”.

As for `O=C1C=C2CC3(O)COc4cc(O)ccc4C3=C2C=C1O` (stereo not shown) [brazilein], the results for the IC50 in assay [1] (setting [11]) and in assay [2] (setting [12]) were 1.47 µM and 2.17 µM, respectively. The Activity entry in assay [3] is on record as “fib/LPS”.

With `Cn1nnnc1SCC1=C(C(=O)O)N2C(=O)[C@@H](NC(=O)[C@H](O)c3ccccc3)[C@H]2SC1` [cefamandole sodium], the IC50 in assay [1] (setting [11]) was determined as 0.052 µM; in assay [2] (setting [12]), 0.002 µM. Also, the Activity result in assay [3] is reported as “fib/LPS”.

As to `C[C@@H]1CCC[C@H](C)N1NC(=O)c1ccc(Cl)c(S(N)(=O)=O)c1` [clopamide], the IC50 in assay [1] (setting [11]) is 0.003 µM; in assay [2] (setting [12]) it was 0.002 µM. For the same compound, the Activity result in assay [3] is recorded as “fib/LPS”.

As to `COc1cc2c(c(OC)c1OC)-c1ccc(=O)c(O)cc1[C@@H](NC(C)=O)CC2` [colchiceine], the IC50 in assay [1] (setting [11]) stood at 0.625 µM; in assay [2] (setting [12]), 0.82 µM. The Activity result in assay [3] is given as “fib/LPS”.

As to `C=C[C@@]1(C)CC(=O)[C@]2(O)[C@@]3(C)[C@@H](O)CCC(C)(C)[C@@H]3[C@H](O)[C@H](OC(C)=O)[C@@]2(C)O1` [colforsin], the IC50 in assay [1] (setting [11]) was 2.08 µM; in assay [2] (setting [12]), 1.35 µM. Moreover, the Activity entry in assay [3] is recorded as “fib/LPS”.

Consider `CO[C@@H]1C[C@@H](C[C@H]2CC[C@H](C)[C@H]([C@@H](C)C(=O)O)O2)O[C@]2(O[C@](C)([C@H]3CC[C@@](C)([C@@H]4O[C@@H]([C@H]5O[C@@](O)(CO)[C@H](C)C[C@@H]5C)C[C@@H]4C)O3)C[C@H]2C)[C@@H]1C` [nigericin sodium], for which the IC50 in assay [1] (setting [11]) stood at 0.206 µM; in assay [2] (setting [12]), 0.065 µM. Also, in assay [3], the Activity entry is recorded as “fib/LPS”.

Take Adipic Acid, Hexanedioic Acid: in assay [1] (primary microglia HTS, fibrin stimulation, compounds at 10 μM), the Fibrin % inhibition is −24%. Further, in assay [2] (primary microglia HTS, LPS stimulation, compounds at 10 μM), the LPS % inhibition stood at 8%. Also, the “Quadrant (FIG. 5b)” value in assay [3] (setting [9]) is “Q4”.

With Beta-escin, in assay [1] (primary HTS, 10 μM, fibrin-stimulated primary microglia), the Fibrin % inhibition is given as −11%. The LPS % inhibition in assay [2] (primary HTS, 10 μM, LPS-stimulated primary microglia) came out at 11%. The “Quadrant (FIG. 5b)” value in assay [3] (primary HTS, 10 μM) was “Q4”.

As for FluoromethoIone [reference compound], in assay [1] (Table 7), the fib_HS is listed as −0.27 and the fib specificity stood at 1.0. In addition, the LPS_HS in assay [2] (setting [10]) is listed as 0.00. In assay [2] (Table 7), this compound yielded an LPS specificity of 1.0. Besides, the “Quadrant (FIG. 5b)” value in assay [3] (Table 2, screen at 10 μM) is on record as “Q2”. Also, in assay [3], the Activity result was “fib/LPS”.
